Molecular target: T1, human recombinant MGMT (O^6-methylguanine-DNA methyltransferase) (Homo sapiens, UniProt P16455)
T1 construct: recombinant
T1 sequence (P16455 1-207): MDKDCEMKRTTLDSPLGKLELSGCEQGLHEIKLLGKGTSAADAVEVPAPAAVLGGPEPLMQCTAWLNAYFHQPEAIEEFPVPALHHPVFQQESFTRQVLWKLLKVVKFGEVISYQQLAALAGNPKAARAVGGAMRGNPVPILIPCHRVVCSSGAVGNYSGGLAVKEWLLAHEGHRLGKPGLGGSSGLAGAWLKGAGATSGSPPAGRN
Assay: [3H]-methylated-DNA MGMT inactivation assay
Format: biochemical

Row | IC50 [nM] | SMILES
1 | 3.02 | N#Cc1csc(COc2nc(N)nc3[nH]cnc23)c1 [compound 90]
2 | 2.82 | CCCOC(=O)n1cc2c(OCc3cc(Br)cs3)nc(N)nc2n1 [compound 411]

From article PMC10458236, “QSAR and Chemical Read-Across Analysis of 370 Potential MGMT Inactivators to Identify the Structural Features Influencing Inactivation Potency” (Pharmaceutics, 2023)
